According to PubChem BioAssay AID328 (DTP/NCI, 2004):
Values joined by “and” are separate entries in the source; they are usually repeats but may differ in a detail not shown here. Identical values can stand only once. Inconclusive results and toxic doses are left out.

Tested on: BDF1 mice, P388 leukemia ip, median survival T/C
Experiment: NCI In Vivo Anticancer Drug Screen. Data for tumor model P388 Leukemia (intraperitoneal) in B6D2F1 (BDF1) mice
Details: endpoint: median survival time, higher = longer survival
Summary of the method: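 Read-out is survival of treated animals expressed relative to the vehicle group, as a T/C ratio.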

[1] = dose: 1.56 mg/kg/injection, schedule: Q01DX009 (ip), vehicle: saline with Tween-80
[2] = dose: 6.25 mg/kg/injection, schedule: Q01DX009 (ip), vehicle: saline with Tween-80
[3] = dose: 12.5 mg/kg/injection, schedule: Q01DX009 (ip), vehicle: saline with Tween-80
[4] = dose: 25.0 mg/kg/injection, schedule: Q01DX009 (ip), vehicle: saline with Tween-80
[5] = dose: 100.0 mg/kg/injection, schedule: Q01DX009 (ip), vehicle: saline
[6] = dose: 200.0 mg/kg/injection, schedule: Q01DX009 (ip), vehicle: saline
[7] = dose: 400.0 mg/kg/injection, schedule: Q01DX009 (ip), vehicle: saline
[8] = dose: 100.0 mg/kg/injection, schedule: Q01DX009 (ip), vehicle: saline with Tween-80
[9] = dose: 200.0 mg/kg/injection, schedule: Q01DX009 (ip), vehicle: saline with Tween-80
[10] = dose: 400.0 mg/kg/injection, schedule: Q01DX009 (ip), vehicle: saline with Tween-80
[11] = dose: 12.5 mg/kg/injection, schedule: Q04DX003 (ip), vehicle: saline
[12] = dose: 25.0 mg/kg/injection, schedule: Q04DX003 (ip), vehicle: saline with Tween-80
[13] = dose: 25.0 mg/kg/injection, schedule: Q04DX003 (ip), vehicle: saline
[14] = dose: 50.0 mg/kg/injection, schedule: Q01DX009 (ip), vehicle: saline with Tween-80
[15] = dose: 100.0 mg/kg/injection, schedule: Q04DX003 (ip), vehicle: saline with Tween-80
[16] = dose: 200.0 mg/kg/injection, schedule: Q04DX003 (ip), vehicle: saline with Tween-80
[17] = dose: 400.0 mg/kg/injection, schedule: Q04DX003 (ip), vehicle: saline with Tween-80
[18] = dose: 100.0 mg/kg/injection, schedule: Q01DX001 (ip), vehicle: other
[19] = dose: 100.0 mg/kg/injection, schedule: Q01DX009 (ip), vehicle: Klucel (hydroxypropylcellulose) (HPC)
[20] = dose: 200.0 mg/kg/injection, schedule: Q01DX009 (ip), vehicle: Klucel (hydroxypropylcellulose) (HPC)
[21] = dose: 400.0 mg/kg/injection, schedule: Q01DX009 (ip), vehicle: Klucel (hydroxypropylcellulose) (HPC)

O=c1[nH]nc(-c2ccccc2)nc1/C(=N\Nc1ccccc1)c1ccccc1
T/C [1]: 92 % of control
T/C (dose: 3.12 mg/kg/injection, schedule: Q01DX009 (ip), vehicle: saline with Tween-80): 107 % of control
T/C [2]: 95 % of control and 98 % of control
T/C [3]: 101 % of control
T/C [4]: 92 % of control

C=CN1CCCC1=O
T/C (dose: 100.0 mg/kg/injection, schedule: Q01DX001 (ip), vehicle: saline): 100 % of control
T/C [5]: 90 % of control
T/C (dose: 200.0 mg/kg/injection, schedule: Q01DX001 (ip), vehicle: saline): 95 % of control
T/C [6]: 118 % of control
T/C (dose: 400.0 mg/kg/injection, schedule: Q01DX001 (ip), vehicle: saline): 100 % of control
T/C [7]: 122 % of control

C1CC[CH]([Sn]([CH]2CCCCC2)[CH]2CCCCC2)CC1
T/C (dose: 0.78 mg/kg/injection, schedule: Q01DX009 (ip), vehicle: saline with Tween-80): 98 % of control
T/C [1]: 89 % of control

CC(C)c1ccc(NC(=O)Nc2cccc3ccccc23)cc1
T/C (dose: 50.0 mg/kg/injection, schedule: Q01DX001 (ip), vehicle: saline with Tween-80): 95 % of control
T/C (dose: 100.0 mg/kg/injection, schedule: Q01DX001 (ip), vehicle: saline with Tween-80): 109 % of control
T/C (dose: 200.0 mg/kg/injection, schedule: Q01DX001 (ip), vehicle: saline with Tween-80): 100 % of control

CN(C)[C@@H]1C(=O)C(C(=O)NCNCCCC(=O)O)=C(O)[C@@]2(O)C(=O)C3=C(O)c4c(O)cccc4[C@@](C)(O)[C@H]3C[C@@H]12
T/C [8]: 95 % of control
T/C [9]: 104 % of control
T/C [10]: 104 % of control

CN(C)CCCN1c2ccccc2Sc2ccc(C(F)(F)F)cc21
T/C (dose: 6.25 mg/kg/injection, schedule: Q01DX009 (ip), vehicle: saline): 100 % of control
T/C (dose: 6.25 mg/kg/injection, schedule: Q04DX003 (ip), vehicle: saline with Tween-80): 108 % of control
T/C (dose: 8.9 mg/kg/injection, schedule: Q01DX009 (ip), vehicle: saline): 118 % of control
T/C (dose: 9.37 mg/kg/injection, schedule: Q01DX009 (ip), vehicle: saline): 110 % of control
T/C (dose: 12.5 mg/kg/injection, schedule: Q04DX003 (ip), vehicle: saline with Tween-80): 113 % of control
T/C [11]: 108 % of control
T/C (dose: 13.4 mg/kg/injection, schedule: Q01DX009 (ip), vehicle: saline): 109 % of control
T/C (dose: 16.5 mg/kg/injection, schedule: Q01DX009 (ip), vehicle: saline): 122 % of control
T/C (dose: 20.0 mg/kg/injection, schedule: Q01DX009 (ip), vehicle: saline): 118 % of control
T/C (dose: 25.0 mg/kg/injection, schedule: Q01DX009 (ip), vehicle: saline): 100 % of control
T/C [12]: 113 % of control
T/C [13]: 109 % of control
T/C (dose: 37.5 mg/kg/injection, schedule: Q01DX009 (ip), vehicle: saline): 100 % of control
T/C (dose: 37.5 mg/kg/injection, schedule: Q04DX003 (ip), vehicle: saline): 161 % of control
T/C (dose: 50.0 mg/kg/injection, schedule: Q01DX009 (ip), vehicle: saline): 95 % of control

CCN(CC)CCCC(C)Nc1c2ccc(C)cc2nc2ccc(OC)cc12 (stereo unspecified)
T/C [14]: 123 % of control

O=C(Cn1cc(F)c(=O)[nH]c1=O)c1ccc(Cl)s1
T/C [14]: 105 % of control
T/C [8]: 96 % of control
T/C [15]: 94 % of control
T/C [9]: 103 % of control
T/C [16]: 101 % of control
T/C [10]: 103 % of control
T/C [17]: 102 % of control

O=C1CCC(=O)N1C1c2ccccc2Oc2ccccc21
T/C [18]: 90 % of control
T/C (dose: 200.0 mg/kg/injection, schedule: Q01DX001 (ip), vehicle: other): 90 % of control
T/C (dose: 400.0 mg/kg/injection, schedule: Q01DX001 (ip), vehicle: other): 113 % of control

C=CCOP1(=O)OCC2OC(n3cnc4c(N)ncnc43)C(O)C2O1 (stereo unspecified)
T/C [5]: 88 % of control
T/C [6]: 100 % of control
T/C [7]: 88 % of control

CC(=O)Nc1c(Cl)cc2c(c1Cl)Cc1cc([N+](=O)[O-])ccc1-2
T/C [8]: 95 % of control
T/C [15]: 92 % of control and 95 % of control
T/C [9]: 95 % of control
T/C [16]: 92 % of control and 95 % of control
T/C [10]: 100 % of control
T/C [17]: 91 % of control

CCCN(CCC)c1ccc(/C=C/c2ccc3cc(OCC)ccc3n2)cc1
T/C [19]: 100 % of control
T/C (dose: 100.0 mg/kg/injection, schedule: Q04DX003 (ip), vehicle: Klucel (hydroxypropylcellulose) (HPC)): 104 % of control
T/C [20]: 100 % of control
T/C (dose: 200.0 mg/kg/injection, schedule: Q04DX003 (ip), vehicle: Klucel (hydroxypropylcellulose) (HPC)): 104 % of control
T/C [21]: 90 % of control
T/C (dose: 400.0 mg/kg/injection, schedule: Q04DX003 (ip), vehicle: Klucel (hydroxypropylcellulose) (HPC)): 109 % of control

O/N=c1\cc(-c2ccccc2)oc2ccccc12
T/C (dose: 3.13 mg/kg/injection, schedule: Q01DX009 (ip), vehicle: saline with Tween-80): 95 % of control
T/C [2]: 95 % of control
T/C [3]: 112 % of control
T/C [4]: 123 % of control

CCCCCCCCCC(O)CCCCCCCCC
T/C (dose: 100.0 mg/kg/injection, schedule: Q01DX009 (ip), vehicle: other): 100 % of control
T/C (dose: 200.0 mg/kg/injection, schedule: Q01DX009 (ip), vehicle: other): 95 % of control
T/C (dose: 400.0 mg/kg/injection, schedule: Q01DX009 (ip), vehicle: other): 110 % of control

CC(=O)O.[Cd]
T/C (dose: 5.0 mg/kg/injection, schedule: Q04DX003 (ip), vehicle: saline): 95 % of control

C=CC(=O)NC(Cc1ccccc1)C(=O)O (stereo unspecified)
T/C [14]: 102 % of control
T/C [8]: 98 % of control
T/C [9]: 99 % of control

COC(=O)N1C=Cc2ccccc2C1C#N (stereo unspecified)
T/C (dose: 25.0 mg/kg/injection, schedule: Q01DX001 (ip), vehicle: other): 104 % of control
T/C [4]: 105 % of control
T/C [12]: 100 % of control
T/C (dose: 50.0 mg/kg/injection, schedule: Q01DX001 (ip), vehicle: other): 90 % of control
T/C [14]: 110 % of control
T/C (dose: 50.0 mg/kg/injection, schedule: Q04DX003 (ip), vehicle: saline with Tween-80): 104 % of control
T/C [18]: 86 % of control
T/C [8]: 110 % of control
T/C [15]: 100 % of control

N=Cc1c(O)n(-c2ccccc2)c(=O)n(-c2ccccc2)c1=O
T/C [8]: 95 % of control
T/C [9]: 95 % of control
T/C [10]: 90 % of control

CC(=O)[C@H]1CC[C@H]2[C@@H]3CCC4=CC(=O)CC[C@]4(C)[C@H]3CC[C@]12C
T/C (dose: 100.0 mg/kg/injection, schedule: Q01DX009 (sc), vehicle: steriod suspending solution): 104 % of control
T/C (dose: 100.0 mg/kg/injection, schedule: Q04DX003 (sc), vehicle: steriod suspending solution): 100 % of control
T/C (dose: 200.0 mg/kg/injection, schedule: Q01DX009 (sc), vehicle: steriod suspending solution): 87 % of control
T/C (dose: 200.0 mg/kg/injection, schedule: Q04DX003 (sc), vehicle: steriod suspending solution): 105 % of control
T/C (dose: 400.0 mg/kg/injection, schedule: Q01DX009 (sc), vehicle: steriod suspending solution): 87 % of control
T/C (dose: 400.0 mg/kg/injection, schedule: Q04DX003 (sc), vehicle: steriod suspending solution): 110 % of control

CC(=O)N1C=Cn2c(cnc2C)C1O (stereo unspecified)
T/C (dose: 100.0 mg/kg/injection, schedule: Q04DX003 (ip), vehicle: water): 96 % of control
T/C (dose: 200.0 mg/kg/injection, schedule: Q04DX003 (ip), vehicle: water): 91 % of control
T/C (dose: 400.0 mg/kg/injection, schedule: Q04DX003 (ip), vehicle: water): 99 % of control

Cc1ccc(N2CCN(CCCN3CCN(c4ccccc4Cl)CC3)CC2)cc1
T/C [2]: 86 % of control
T/C (dose: 6.25 mg/kg/injection, schedule: Q04DX003 (ip), vehicle: saline): 104 % of control
T/C [3]: 95 % of control
T/C [11]: 100 % of control
T/C [4]: 100 % of control
T/C [13]: 104 % of control

CC(=O)Oc1c(C)c2c(O)c3c1C1=C(OCOC1=C(C)C3=O)C(C)=CC(C)(O)C(O)C(C)C(O)C1C(=O)OC(C(C)/C=C\C=C(C)C(=O)N2)C(C)C1O (stereo unspecified)
T/C [19]: 119 % of control
T/C [20]: 123 % of control
T/C [21]: 110 % of control
